≈ marks a conversion by molar mass, not a printed value. Bounds are passed on as bounds.

For this data set the following is noted: for aqueous solubility: pH 6.8.

For the molecule `CNc1nc(-c2cc(OC)cc(OC)c2)ncc1F`, the MDR1-MDCK efflux ratio stood at 0.408; the intrinsic clearance, human liver microsomes is 37.1 mL/min/kg; the intrinsic clearance, rat liver microsomes was determined as 118 mL/min/kg; the aqueous solubility came to 25.6 µg/mL (≈ 97.4 µM).

As to `CCn1c(CN2CCCCCC2)nc2ccccc2c1=O`, the MDR1-MDCK efflux ratio came out at 0.561; the intrinsic clearance, human liver microsomes was found to be 25.7 mL/min/kg; the intrinsic clearance, rat liver microsomes came out at 2240 mL/min/kg.

For `Cc1cc2cc(C(=O)N(Cc3ccc4c(c3)OCO4)C3CC3)ccc2o1`, the MDR1-MDCK efflux ratio was found to be 0.28; the intrinsic clearance, human liver microsomes came to 127 mL/min/kg; the intrinsic clearance, rat liver microsomes came to 1730 mL/min/kg; the aqueous solubility stood at 11.7 µg/mL (≈ 33.6 µM).

Consider `CCc1nnc(NC(=O)c2ccc3cc(OC)ccc3n2)s1`, for which the MDR1-MDCK efflux ratio turned out to be 0.248; the intrinsic clearance, human liver microsomes stood at 35.9 mL/min/kg; the intrinsic clearance, rat liver microsomes turned out to be 105 mL/min/kg; the aqueous solubility is 4.17 µg/mL (≈ 13.3 µM).

Turning to `Cc1cc(C(=O)Nc2c(C)nn(C(C)C)c2C)c2ccc(F)cc2n1`, the MDR1-MDCK efflux ratio worked out at 8.41; the intrinsic clearance, human liver microsomes was 6.78 mL/min/kg; the intrinsic clearance, rat liver microsomes is 40.2 mL/min/kg; the aqueous solubility stood at 50.5 µg/mL (≈ 148 µM).

As to `CC(C)(O)CNc1ncc(-c2ccnc(Nc3ccnc(Cl)c3)n2)c(CC2CC2)n1`, the MDR1-MDCK efflux ratio came to 10.5; the intrinsic clearance, human liver microsomes was 23.6 mL/min/kg; the intrinsic clearance, rat liver microsomes was 149 mL/min/kg; the aqueous solubility worked out at 21.9 µg/mL (≈ 51.5 µM).

Regarding `Clc1cccc(CNc2nc(C3CC3)no2)c1`, the MDR1-MDCK efflux ratio came out at 0.476; the intrinsic clearance, human liver microsomes was found to be 22 mL/min/kg; the intrinsic clearance, rat liver microsomes was 165 mL/min/kg; the aqueous solubility was determined as 29.3 µg/mL (≈ 117 µM).

Regarding `COc1cc2c(NC3CCN(C(C)C)CC3)nc(N3CCC(F)(F)CC3)nc2cc1OCCCN1CCCC1`, the intrinsic clearance, human liver microsomes is at most 4.74 mL/min/kg; the intrinsic clearance, rat liver microsomes was determined as 26.3 mL/min/kg; the aqueous solubility worked out at 64.8 µg/mL (≈ 119 µM).

`Cc1cc(C)cc(Oc2cc(C#N)ccn2)c1`: the MDR1-MDCK efflux ratio came out at 0.559; the intrinsic clearance, human liver microsomes is 48 mL/min/kg; the intrinsic clearance, rat liver microsomes stood at 214 mL/min/kg; the aqueous solubility worked out at 9.73 µg/mL (≈ 43.4 µM).

As for `CN1CCN(c2ccc(NC(=O)c3ccccc3Cl)nc2)CC1`, the MDR1-MDCK efflux ratio is 0.523; the intrinsic clearance, human liver microsomes was at most 4.74 mL/min/kg; the intrinsic clearance, rat liver microsomes was 349 mL/min/kg; the aqueous solubility stood at 45.8 µg/mL (≈ 138 µM).

In the case of `Cc1ccc(F)c(N(C#N)Cc2nccn2C(F)F)c1`, the MDR1-MDCK efflux ratio is 0.613; the intrinsic clearance, human liver microsomes turned out to be 19.9 mL/min/kg; the intrinsic clearance, rat liver microsomes amounted to 225 mL/min/kg; the aqueous solubility stood at 45.1 µg/mL (≈ 161 µM).

For the molecule `Clc1cnc(NCC2(CN3CCCC3)CC2)nc1`, the MDR1-MDCK efflux ratio is 0.734; the intrinsic clearance, human liver microsomes is at most 4.74 mL/min/kg; the intrinsic clearance, rat liver microsomes was 134 mL/min/kg.

For the molecule `Cn1ncc2cc(-c3ccnc4[nH]ccc34)ccc21`, the MDR1-MDCK efflux ratio came out at 0.608; the intrinsic clearance, human liver microsomes was determined as 117 mL/min/kg; the intrinsic clearance, rat liver microsomes came out at 689 mL/min/kg; the aqueous solubility worked out at 4.67 µg/mL (≈ 18.8 µM).

On to `Cc1cc(C)nc(NC(=O)N(C)C2CCC2)c1`, for which the MDR1-MDCK efflux ratio came to 0.503; the intrinsic clearance, human liver microsomes turned out to be 92.6 mL/min/kg; the intrinsic clearance, rat liver microsomes turned out to be 177 mL/min/kg; the aqueous solubility is 41.2 µg/mL (≈ 177 µM).

`CN1CCN(S(=O)(=O)Cc2ccc(Cl)c(Cl)c2)CC1`: the MDR1-MDCK efflux ratio came to 0.562; the intrinsic clearance, human liver microsomes came to 33.9 mL/min/kg; the intrinsic clearance, rat liver microsomes was 887 mL/min/kg.

As to `CCN(CC)C(=O)N1CCCN(C(=O)N(CC)CC)CC1`, the MDR1-MDCK efflux ratio was determined as 4.51; the intrinsic clearance, human liver microsomes was 68.5 mL/min/kg; the intrinsic clearance, rat liver microsomes came out at 698 mL/min/kg; the aqueous solubility is 48.6 µg/mL (≈ 163 µM).

Turning to `CC(C)c1nc(NCc2cccnc2)n(C)n1`, the MDR1-MDCK efflux ratio amounted to 3.72; the intrinsic clearance, human liver microsomes was at most 4.74 mL/min/kg; the intrinsic clearance, rat liver microsomes was at most 10.7 mL/min/kg; the aqueous solubility was determined as 38.2 µg/mL (≈ 165 µM).

Turning to `O=c1c2c(nc3ccccn13)CCN(S(=O)(=O)C1CCCCC1)C2`, the MDR1-MDCK efflux ratio turned out to be 1.18; the intrinsic clearance, human liver microsomes is 19.9 mL/min/kg; the intrinsic clearance, rat liver microsomes stood at 1100 mL/min/kg; the aqueous solubility was found to be 33.2 µg/mL (≈ 95.7 µM).

On to `Cc1ccc(C(=O)Nc2ccccc2C(C)(C)C)cn1`, for which the MDR1-MDCK efflux ratio was determined as 0.696; the intrinsic clearance, human liver microsomes is at most 4.74 mL/min/kg; the intrinsic clearance, rat liver microsomes was found to be 30.4 mL/min/kg; the aqueous solubility was found to be 32 µg/mL (≈ 119 µM).

As for `O=C(Nc1cccnc1)c1ccnc(NC(=O)C2CC2)c1`, the MDR1-MDCK efflux ratio is 2.81; the fraction unbound, rat plasma worked out at 0.412; the intrinsic clearance, human liver microsomes was at most 4.74 mL/min/kg; the intrinsic clearance, rat liver microsomes was 27.3 mL/min/kg. Besides, the aqueous solubility amounted to 40.8 µg/mL (≈ 144 µM).

`CC(C)(C)c1csc(Cn2ccnc2-c2ccccn2)n1`: the intrinsic clearance, human liver microsomes was 122 mL/min/kg and the intrinsic clearance, rat liver microsomes stood at 2620 mL/min/kg.

`O=c1oc2cccnc2n1Cc1ccccn1`: the MDR1-MDCK efflux ratio came out at 2.49; the intrinsic clearance, human liver microsomes was at most 4.74 mL/min/kg; the intrinsic clearance, rat liver microsomes is at most 10.7 mL/min/kg.

On to `Cn1nccc1CC1CCN(C2CCCC2)CC1`, for which the MDR1-MDCK efflux ratio stood at 0.94; the intrinsic clearance, human liver microsomes is at most 4.74 mL/min/kg; the intrinsic clearance, rat liver microsomes is 258 mL/min/kg; the aqueous solubility amounted to 26.2 µg/mL (≈ 106 µM).

Turning to `Cc1ccccc1COC1CN(C(=O)Cn2c(=O)[nH]c3ccccc32)C1`, the MDR1-MDCK efflux ratio was 7.15; the intrinsic clearance, human liver microsomes was 15.3 mL/min/kg; the intrinsic clearance, rat liver microsomes came to 376 mL/min/kg; the aqueous solubility worked out at 45.2 µg/mL (≈ 129 µM).

As to `O=c1c2cccc(C(F)(F)F)c2ncn1C1CCCC1`, the MDR1-MDCK efflux ratio came to 0.528; the intrinsic clearance, human liver microsomes came out at 115 mL/min/kg; the intrinsic clearance, rat liver microsomes was found to be 317 mL/min/kg.

Regarding `Cc1cn2nc(-c3cc(=O)n4cc(N5CCNC6(CC6)C5)ccc4n3)cc(C)c2n1`, the MDR1-MDCK efflux ratio was 12.7; the fraction unbound, human plasma is 0.0967; the intrinsic clearance, human liver microsomes was determined as 17.5 mL/min/kg; the aqueous solubility stood at 36 µg/mL (≈ 89.7 µM).

For the molecule `C=CC(=O)N(C)CCOc1c(N)ncnc1-c1cc(F)cc(NC(=O)c2ccc(C3CC3)cc2F)c1C`, the MDR1-MDCK efflux ratio came to 86.8; the fraction unbound, human plasma turned out to be 0.0689; the intrinsic clearance, human liver microsomes worked out at 79 mL/min/kg; the intrinsic clearance, rat liver microsomes was found to be 2040 mL/min/kg. The same molecule returned an aqueous solubility of 58.9 µg/mL (≈ 116 µM).

In turn, `COC(=O)Nc1nc2ccccc2[nH]1` gave an aqueous solubility of 8.05 µg/mL (≈ 42.1 µM).

As for `COc1ccc(Cl)cc1NC(=O)CN1CCCN(c2ccc(C(F)(F)F)cn2)CC1`, the MDR1-MDCK efflux ratio worked out at 1.75; the intrinsic clearance, human liver microsomes came to 453 mL/min/kg; the intrinsic clearance, rat liver microsomes turned out to be 1060 mL/min/kg.

As for `CC(C)C[C@@H](CO)n1cc(-c2ccccc2Cn2cccn2)nn1`, the MDR1-MDCK efflux ratio came out at 6.29; the intrinsic clearance, human liver microsomes is 101 mL/min/kg; the intrinsic clearance, rat liver microsomes stood at 513 mL/min/kg; the aqueous solubility is 17 µg/mL (≈ 52.3 µM).

Consider `COC(C)(C)C(=O)Nc1ccnc(C(C)(C)C)n1`, for which the MDR1-MDCK efflux ratio was determined as 0.599; the intrinsic clearance, human liver microsomes turned out to be 10.9 mL/min/kg; the intrinsic clearance, rat liver microsomes is 106 mL/min/kg.

Consider `Cc1ccc(NC(=O)OC(C)(C)C)c2c1N(C(=O)[C@H]1CCCO1)CCC2`, for which the MDR1-MDCK efflux ratio came to 2.91; the intrinsic clearance, human liver microsomes was determined as 33.6 mL/min/kg; the intrinsic clearance, rat liver microsomes worked out at 377 mL/min/kg; the aqueous solubility is 32.2 µg/mL (≈ 89.3 µM).

Turning to `Cc1cc(C(=O)Nc2ncccc2C)c2ccccc2n1`, the intrinsic clearance, human liver microsomes turned out to be 13.7 mL/min/kg; the intrinsic clearance, rat liver microsomes came out at 58.3 mL/min/kg; the aqueous solubility came out at 44 µg/mL (≈ 159 µM).

Regarding `Cc1ccc(NC(=O)C(C)(C)c2ccccc2)nc1`, the MDR1-MDCK efflux ratio worked out at 0.556; the intrinsic clearance, human liver microsomes worked out at 16.8 mL/min/kg; the intrinsic clearance, rat liver microsomes was found to be 626 mL/min/kg; the aqueous solubility was 30.6 µg/mL (≈ 120 µM).

`Cc1ccccc1OCCn1c(N)nc2ccccc21`: the MDR1-MDCK efflux ratio was 1.52; the intrinsic clearance, human liver microsomes was 19.1 mL/min/kg; the intrinsic clearance, rat liver microsomes was 1760 mL/min/kg; the aqueous solubility worked out at 40.6 µg/mL (≈ 152 µM).

In turn, `Cc1ccc(S(=O)(=O)Nc2ccc3c(c2)c2c(n3S(=O)(=O)c3ccc(C)cc3)CCC2)cc1` returned an intrinsic clearance, human liver microsomes of 230 mL/min/kg and an intrinsic clearance, rat liver microsomes of 1490 mL/min/kg.

As to `COc1cccc(F)c1NC(=O)N1CCC(N2CC=CC2)CC1`, the MDR1-MDCK efflux ratio was 8.24; the intrinsic clearance, human liver microsomes is at most 4.74 mL/min/kg; the intrinsic clearance, rat liver microsomes amounted to 363 mL/min/kg.

For `CC#CC(=O)N1CCC[C@@H]1c1nc(-c2ccc(C(=O)Nc3ccccn3)cc2)c2c(N)nccn12`, the MDR1-MDCK efflux ratio came to 37.1; the fraction unbound, human plasma is 0.0946; the intrinsic clearance, human liver microsomes stood at 73.9 mL/min/kg; the intrinsic clearance, rat liver microsomes is 275 mL/min/kg.

Regarding `CCc1ccc(-c2nccn2CC(=O)Nc2ccc(C)cc2F)nc1`, the MDR1-MDCK efflux ratio amounted to 0.725; the intrinsic clearance, human liver microsomes was 32.6 mL/min/kg; the intrinsic clearance, rat liver microsomes is 625 mL/min/kg; the aqueous solubility worked out at 28.3 µg/mL (≈ 83.5 µM).

For `CC(C)(C)C(=O)Nc1nnc(Cc2ccccc2)s1`, the MDR1-MDCK efflux ratio was 1.19; the intrinsic clearance, human liver microsomes is at most 4.74 mL/min/kg; the intrinsic clearance, rat liver microsomes was determined as 658 mL/min/kg; the aqueous solubility came out at 35.2 µg/mL (≈ 128 µM).

In the case of `O=C1N=C(N2CCN(c3ccccc3)CC2)S/C1=C\c1ccc(O)cc1O`, the MDR1-MDCK efflux ratio is 4.26 and the aqueous solubility amounted to 0.85 µg/mL (≈ 2.23 µM).

`CCN1CCC(Nc2nc(C)cc(C)c2C#N)CC1`: the MDR1-MDCK efflux ratio was determined as 1.24; the intrinsic clearance, human liver microsomes was determined as 6.73 mL/min/kg; the intrinsic clearance, rat liver microsomes was determined as 2490 mL/min/kg; the aqueous solubility worked out at 43.4 µg/mL (≈ 168 µM).

Turning to `CCC1=C(C)CN(C(=O)NCCc2ccc(S(=O)(=O)NC(=O)N[C@H]3CC[C@H](C)CC3)cc2)C1=O`, the MDR1-MDCK efflux ratio stood at 68.6; the fraction unbound, human plasma came to 0.00066; the fraction unbound, rat plasma is 0.00023; the intrinsic clearance, human liver microsomes was 19.2 mL/min/kg. This molecule returned an intrinsic clearance, rat liver microsomes of 305 mL/min/kg.

`Nc1nc2ccccc2n1C1CCCC1` showed an intrinsic clearance, human liver microsomes of 37.1 mL/min/kg and an intrinsic clearance, rat liver microsomes of 87.6 mL/min/kg.

As usually defined, the aqueous solubility is how much of the substance goes into solution per volume. Higher therefore signals a readily soluble substance.

Values taken from the Biogen ADME set (Fang et al. 2023).
